Assay results: patent US20260297109A1, “COMPOUNDS AS SUMO ACTIVATING ENZYME INHIBITORS” (WIGEN BIOMEDICINE TECHNOLOGY (SHANGHAI) CO., LTD., priority 2022, published 2026)

What follows are molecules tested against T1, SAE (Homo sapiens, UniProt Q9UBT2) (assay: SUMO IF: in vitro inhibitory activity assay against SAE in HCT116 cells (SUMO-2/3 immunofluorescence)). Conditions: class symbols, 6 h at 37° C.
T1 construct: endogenous in cells; host or cells: HCT116
T1 sequence (Q9UBT2 1-640): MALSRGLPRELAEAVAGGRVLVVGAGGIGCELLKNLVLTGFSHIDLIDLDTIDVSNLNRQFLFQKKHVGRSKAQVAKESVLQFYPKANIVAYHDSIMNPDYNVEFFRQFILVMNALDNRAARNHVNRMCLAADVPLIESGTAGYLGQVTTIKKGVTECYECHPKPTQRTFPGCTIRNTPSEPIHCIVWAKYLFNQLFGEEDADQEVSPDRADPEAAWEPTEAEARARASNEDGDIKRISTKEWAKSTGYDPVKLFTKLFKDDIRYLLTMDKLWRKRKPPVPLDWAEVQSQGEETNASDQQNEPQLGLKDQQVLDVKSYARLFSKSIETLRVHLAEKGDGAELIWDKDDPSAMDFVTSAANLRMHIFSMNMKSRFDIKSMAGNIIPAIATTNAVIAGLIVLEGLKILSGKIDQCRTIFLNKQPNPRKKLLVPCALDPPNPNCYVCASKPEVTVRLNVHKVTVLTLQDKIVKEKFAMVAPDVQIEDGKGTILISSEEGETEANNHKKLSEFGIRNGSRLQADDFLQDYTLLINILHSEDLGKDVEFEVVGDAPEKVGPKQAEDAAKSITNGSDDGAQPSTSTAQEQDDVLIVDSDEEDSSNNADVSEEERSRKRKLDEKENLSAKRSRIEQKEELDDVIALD
T1 sequence (Q9UBE0 1-346): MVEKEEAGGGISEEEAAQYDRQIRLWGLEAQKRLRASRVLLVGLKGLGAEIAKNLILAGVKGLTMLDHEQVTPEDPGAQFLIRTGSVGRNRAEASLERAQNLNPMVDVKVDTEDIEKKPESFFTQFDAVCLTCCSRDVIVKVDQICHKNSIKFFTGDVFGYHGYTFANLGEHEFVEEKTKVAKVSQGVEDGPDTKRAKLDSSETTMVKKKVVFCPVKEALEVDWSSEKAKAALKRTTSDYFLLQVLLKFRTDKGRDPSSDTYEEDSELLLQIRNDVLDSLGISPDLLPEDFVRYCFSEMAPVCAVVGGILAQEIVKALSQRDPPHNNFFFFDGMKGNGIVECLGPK
Type: cell-based
Procedure: Biological Example 1. In Vitro Inhibitory Activity Assay of Compounds of the Present Disclosure Against SAE
HCT116 cells were seeded into a 96-well black transparent bottom plate at about 20000/well with 90 μL per well. The cells were incubated at 37° C. overnight for 24 h. The test compounds were 10-fold diluted to give a final concentration, and 10 μL of the diluted compounds was added to each well of the cell culture plate. The mixture was incubated at 37° C. for 6 h. The cells were then washed gently, the culture medium was discarded, and the cells were washed once with 200 μL of 0.1% PBST. 50 μL of 4% PFA was added to each well, and the cells were immobilized at room temperature for 20 min, and then washed with PBS 2-3 times. 50 μL of 0.2% Triton X-100 was added to each well, and the cells were left to stand at room temperature for 15 min and washed with 0.1% PBST 3 times. 100 μL of 3% BSA (0.6 g BSA+20 mL PBS) was added to each well, and the mixture was blocked at 37° C. for 30 min. After the blocking was completed, the liquid was removed and a primary antibody (SUMO-2/3 (18H8) Rabbit mAb, 1:400 dilution) was prepared with 1% BSA. 30 μL of the diluted primary antibody was added to each well, and the mixture was incubated at 4° C. overnight. The cells were washed 3 times with 200 μL of 0.1% PBST. A FITC secondary antibody (Fluorescein (FITC)-conjugated Affinipure Goat Anti-Rabbit IgG (H+L), 1:300 dilution) was further prepared with 1% BSA, and 40 μL of the diluted secondary antibody was added to each well. The mixture was incubated at room temperature in the dark for 2 h, and then the cells were washed 4 times with 0.1% PBST. The fluorescence signal of the sample was detected and compared to the DMSO group, and the inhibition rate and IC50 were calculated.

| SMILES | IC50 [nM] |
| --- | --- |
| Cc1sc(C(=O)c2cncnc2N[C@H]2C[C@H](O)[C@@H](COS(N)(=O)=O)[C@@H]2F)cc1C1NCCc2cnc(Cl)cc21 (stereo partly shown) [Compound 255] | 50 to 200 |
| NS(=O)(=O)OC[C@H]1[C@H](F)[C@@H](Nc2ncncc2C(=O)c2cc(C3NCCc4ccc(Cl)cc43)c(Cl)s2)C[C@@H]1O (stereo partly shown) [Compound 258] | 50 to 200 |
| NS(=O)(=O)OC[C@H]1[C@H](F)[C@@H](Nc2ncncc2C(=O)c2cc3c(s2)CCCC32NCCc3cnc(Cl)cc32)C[C@@H]1O (stereo partly shown) [Compound 597] | 50 to 200 |
| NS(=O)(=O)OC[C@H]1[C@H](F)[C@@H](Nc2ncncc2C(=O)c2cc3c(s2)CCC[C@]32NCCc3ccncc32)C[C@@H]1O [Compound 678] | 50 to 200 |
| NS(=O)(=O)OC[C@H]1[C@H](F)[C@@H](Nc2ncncc2C(=O)c2cc3c(s2)C=CC32NCCc3ccc(F)cc32)C[C@@H]1O (stereo partly shown) [Compound 163] | 50 to 200 |
| N#Cc1ccc2c(c1)[C@@]1(CCCc3sc(C(=O)c4cncnc4N[C@H]4C[C@H](O)[C@@H](COS(N)(=O)=O)[C@@H]4F)cc31)OCC2 [Compound 716] | ≤ 50 |
| CCN1Cc2sc(C(=O)c3cncnc3N[C@H]3C[C@H](O)[C@@H](COS(N)(=O)=O)[C@@H]3F)cc2[C@]2(C1)OCCc1ccc(Cl)cc12 [Compound 731] | ≤ 50 |
| NS(=O)(=O)OC[C@H]1[C@H](F)[C@@H](Nc2ncncc2C(=O)c2cc3c(s2)C=CC32OCCc3ccccc32)C[C@@H]1O (stereo partly shown) [Compound 753] | 50 to 200 |
| NS(=O)(=O)OC[C@H]1[C@H](F)[C@@H](Nc2ncncc2C(=O)c2cc3c(s2)CCCC32NCCc3cc(F)c(Cl)c(F)c32)C[C@@H]1O (stereo partly shown) [Compound 116] | 50 to 200 |
| NS(=O)(=O)OC[C@H]1[C@H](F)[C@@H](Nc2ncncc2C(=O)c2cc3c(s2)CCCC32NCCc3cc(Cl)c(F)cc32)C[C@@H]1O (stereo partly shown) [Compound 117] | 50 to 200 |
| NS(=O)(=O)OC[C@H]1[C@H](F)[C@@H](Nc2ncncc2C(=O)c2cc3c(s2)COC[C@@]32NCCc3ccc(Cl)c(Cl)c32)C[C@@H]1O [Compound 559] | > 200 |
| NS(=O)(=O)OC[C@H]1[C@H](F)[C@@H](Nc2ncncc2C(=O)c2cc3c(s2)CC[C@]32NCCc3cc(Cl)ncc32)C[C@@H]1O [Compound 700] | 50 to 200 |
| NS(=O)(=O)OC[C@H]1[C@H](F)[C@@H](Nc2ncncc2C(=O)c2cc3c(s2)CC[C@]32NCCc3cc(Cl)c(F)cc32)C[C@@H]1O [Compound 698] | ≤ 50 |
| CCN1Cc2sc(C(=O)c3cncnc3N[C@H]3C[C@H](O)[C@@H](COS(N)(=O)=O)[C@@H]3F)cc2[C@]2(C1)OCCc1ccc(F)cc12 [Compound 728] | ≤ 50 |
| CC1CN[C@]2(CCCc3sc(C(=O)c4cncnc4N[C@H]4C[C@H](O)[C@@H](COS(N)(=O)=O)[C@@H]4F)cc32)c2cc(Cl)ccc21 (stereo partly shown) [Compound 1022] | ≤ 50 |
| COc1cc2c(cc1Cl)C1(CCc3sc(C(=O)c4cncnc4N[C@H]4C[C@H](O)[C@@H](COS(N)(=O)=O)[C@@H]4F)cc31)NCC2 (stereo partly shown) [Compound 157] | 50 to 200 |
| NS(=O)(=O)OC[C@H]1[C@H](F)[C@@H](Nc2ncncc2C(=O)c2cc3c(s2)CSCC32NCCc3ccccc32)C[C@@H]1O (stereo partly shown) [Compound 294] | > 200 |
| N#Cc1ccc2c(c1)C1(CCCc3sc(C(=O)c4cncnc4N[C@H]4C[C@H](O)[C@@H](COS(N)(=O)=O)[C@@H]4F)cc31)OCC2 (stereo partly shown) [Compound 714] | 50 to 200 |
| COc1ccc2c(c1)C1(CCCc3sc(C(=O)c4cncnc4N[C@H]4C[C@H](O)[C@@H](COS(N)(=O)=O)[C@@H]4F)cc31)NCC2 (stereo partly shown) [Compound 108] | > 200 |

| SMILES | IC50 [nM] |
| --- | --- |
| Cc1sc(C(=O)c2cncnc2N[C@H]2C[C@H](O)[C@@H](COS(N)(=O)=O)[C@@H]2F)cc1[C@@H]1NCCc2ccccc21 [Compound 230] | 50 to 200 |
| NS(=O)(=O)OC[C@H]1[C@H](F)[C@@H](Nc2ncncc2C(=O)c2cc3c(s2)C=C[C@]32OCCc3ccccc32)C[C@@H]1O [Compound 755] | 50 to 200 |
| CC1=C[C@@]2(NCCc3ccc(F)cc32)c2cc(C(=O)c3cncnc3N[C@H]3C[C@H](O)[C@@H](COS(N)(=O)=O)[C@@H]3F)sc21 [Compound 622] | > 200 |
| NS(=O)(=O)OC[C@H]1[C@H](F)[C@@H](Nc2ncncc2C(=O)c2cc3c(s2)CC[C@]32NCCc3cc(F)c(Cl)c(F)c32)C[C@@H]1O [Compound 697] | ≤ 50 |
| NS(=O)(=O)OC[C@H]1[C@H](F)[C@@H](Nc2ncncc2C(=O)c2cc3c(s2)COC[C@]32NCCc3c(F)cc(Cl)cc32)C[C@@H]1O [Compound 575] | 50 to 200 |
| NS(=O)(=O)OC[C@H]1[C@H](F)[C@@H](Nc2ncncc2C(=O)c2cc3c(s2)CSC[C@@]32NCCc3cnc(Cl)cc32)C[C@@H]1O [Compound 607] | > 200 |
| Cc1cc2c(cc1Cl)C1(CCc3sc(C(=O)c4cncnc4N[C@H]4C[C@H](O)[C@@H](COS(N)(=O)=O)[C@@H]4F)cc31)NCC2 (stereo partly shown) [Compound 155] | 50 to 200 |
| NS(=O)(=O)OC[C@H]1[C@H](F)[C@@H](Nc2ncncc2C(=O)c2cc3c(s2)CC[C@]32NCCc3cc(F)c(Cl)cc32)C[C@@H]1O [Compound 692] | ≤ 50 |
| NS(=O)(=O)OC[C@H]1[C@H](F)[C@@H](Nc2ncncc2C(=O)c2cc([C@@H]3NCCc4ccc(Cl)cc43)c(C3CC3)s2)C[C@@H]1O [Compound 985] | 50 to 200 |
| NS(=O)(=O)OC[C@H]1[C@H](F)[C@@H](Nc2ncncc2C(=O)c2cc3c(s2)C(F)(F)C[C@@]32NCCc3ccc(F)cc32)C[C@@H]1O [Compound 625] | > 200 |
| N#Cc1ccc2c(c1)[C@]1(CCc3sc(C(=O)c4cncnc4N[C@H]4C[C@H](O)[C@@H](COS(N)(=O)=O)[C@@H]4F)cc31)NCC2 [Compound 137] | > 200 |
| NS(=O)(=O)OC[C@H]1[C@H](F)[C@@H](Nc2ncncc2C(=O)c2cc3c(s2)CN(C2CC2)CC32OCCc3ccc(Cl)cc32)C[C@@H]1O (stereo partly shown) [Compound 741] | 50 to 200 |
| NS(=O)(=O)OC[C@H]1[C@H](F)[C@@H](Nc2ncncc2C(=O)c2cc3c(s2)CCC32OCCc3ccc(Cl)cc32)C[C@@H]1O (stereo partly shown) [Compound 168] | ≤ 50 |
| Cc1sc(C(=O)c2cncnc2N[C@H]2C[C@H](O)[C@@H](COS(N)(=O)=O)[C@@H]2F)cc1C1NCC2(CC2)c2ccc(Cl)cc21 (stereo partly shown) [Compound 265] | 50 to 200 |
| NS(=O)(=O)OC[C@H]1[C@H](F)[C@@H](Nc2ncncc2C(=O)c2cc3c(s2)COCC32NCCc3cc(F)c(Cl)cc32)C[C@@H]1O (stereo partly shown) [Compound 570] | 50 to 200 |
| NS(=O)(=O)OC[C@H]1[C@H](F)[C@@H](Nc2ncncc2C(=O)c2cc3c(s2)CSC[C@]32NCCc3ccc(Cl)nc32)C[C@@H]1O [Compound 611] | ≤ 50 |
| NS(=O)(=O)OC[C@H]1[C@H](F)[C@@H](Nc2ncncc2C(=O)c2cc3c(s2)CCCC32NCCc3ncc(Cl)cc32)C[C@@H]1O (stereo partly shown) [Compound 603] | 50 to 200 |
| NS(=O)(=O)OC[C@H]1[C@H](F)[C@@H](Nc2ncncc2C(=O)c2cc3c(s2)CCCC32NCCc3ccncc32)C[C@@H]1O (stereo partly shown) [Compound 118] | 50 to 200 |
| CC1(C)CN[C@@]2(CCCc3sc(C(=O)c4cncnc4N[C@H]4C[C@H](O)[C@@H](COS(N)(=O)=O)[C@@H]4F)cc32)c2cc(Cl)ccc21 [Compound 1027] | > 200 |

Same assay, conditions: numeric values, 6 h at 37° C.

| SMILES | IC50 [nM] |
| --- | --- |
| NS(=O)(=O)OC[C@H]1[C@H](F)[C@@H](Nc2ncncc2C(=O)c2cc3c(s2)CC[C@@]32NCCc3ccc(Cl)cc32)C[C@@H]1O [Compound 131] | > 1000 |
| CCN1Cc2sc(C(=O)c3cncnc3N[C@H]3C[C@H](O)[C@@H](COS(N)(=O)=O)[C@@H]3F)cc2[C@]2(C1)NCCc1ccc(Cl)cc12 [Compound 647] | 19.9 |
